Measured values as given in PubChem BioAssay (NCI).
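How tested: cells in 96-well plates exposed to compound for 48 hours at five concentrations. TGI denotes the concentration required for complete inhibition of growth.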

How the values were obtained:
Assay in all cases: NCI tumour cell line growth inhibition, 48 h
[1] = test system: OVCAR-3 ovarian
[2] = test system: UACC-257 melanoma
[3] = test system: NCI-H522 lung
[4] = test system: HS 578T breast
[5] = test system: MCF7 breast
[6] = test system: HOP-62 NSCLC
[7] = test system: TK-10 renal
[8] = test system: OVCAR-5 ovarian
[9] = test system: OVCAR-4 ovarian
[10] = test system: SK-MEL-28 melanoma
[11] = test system: SK-MEL-5 melanoma
[12] = test system: HCT-15 colon
[13] = test system: UO-31 renal
[14] = test system: SN12C renal
[15] = test system: LOX IMVI melanoma
[16] = test system: A498 renal
[17] = test system: RXF 393 renal
[18] = test system: COLO 205 colon
[19] = test system: MDA-N
[20] = test system: A549 NSCLC
[21] = test system: NCI/ADR-RES ovarian
[22] = test system: T-47D breast
[23] = test system: MDA-MB-231 breast
[24] = test system: NCI-H226 lung
[25] = test system: K-562 leukemia
[26] = test system: SW-620 colon
[27] = test system: SNB-75 CNS
[28] = test system: U251 CNS
[29] = test system: SF-295 CNS
[30] = test system: ACHN renal
[31] = test system: MDA-MB-435
[32] = test system: KM12 colon
[33] = test system: EKVX NSCLC
[34] = test system: HCT-116 colon
[35] = test system: DU-145 prostate
[36] = test system: 786-0 renal
[37] = test system: SK-OV-3 ovarian
[38] = test system: MOLT-4 leukemia
[39] = test system: CCRF-CEM leukemia
[40] = test system: IGROV1 ovarian
[41] = test system: NCI-H23 lung
[42] = test system: M14 melanoma
[43] = test system: HT29 colon
[44] = test system: RPMI-8226 leukemia
[45] = test system: BT-549 breast
[46] = test system: SK-MEL-2 melanoma
[47] = test system: MALME-3M melanoma
[48] = test system: OVCAR-8 ovarian
[49] = test system: SNB-19 CNS
[50] = test system: CAKI-1 renal
[51] = test system: PC-3 prostate
[52] = test system: SR leukemia
[53] = test system: UACC-62 melanoma
[54] = test system: HL-60(TB) leukemia
[55] = test system: HOP-92 NSCLC
[56] = test system: SF-539 CNS
[57] = test system: SF-268 CNS
[58] = test system: NCI-H460 lung
[59] = test system: HCC-2998 colon

For `CCCCNN`, the TGI [1] was over 100 µM, the TGI [2] was over 100 µM and the TGI [3] was over 100 µM. It also gave a TGI [4] of over 100 µM, a TGI [5] of over 100 µM and a TGI [6] of over 100 µM. It also gave a TGI [7] of over 100 µM, a TGI [8] of over 100 µM and a TGI [9] of over 100 µM. For the same compound, the TGI [10] was over 100 µM, the TGI [11] was over 100 µM and the TGI [12] was over 100 µM. The TGI [13] was over 100 µM, the TGI [14] was over 100 µM and the TGI [15] was over 100 µM. For the same compound, the TGI [16] was over 100 µM, the TGI [17] was over 100 µM and the TGI [18] was over 100 µM. The TGI [19] was over 100 µM, the TGI [20] was over 100 µM and the TGI [21] was over 100 µM. For the same compound, the TGI [22] was over 100 µM, the TGI [23] was over 100 µM and the TGI [24] was over 100 µM. For the same compound, the TGI [25] was over 100 µM, the TGI [26] was over 100 µM and the TGI [27] was over 100 µM. The TGI [28] was over 100 µM, the TGI [29] was over 100 µM and the TGI [30] was over 100 µM. It also gave a TGI [31] of over 100 µM, a TGI [32] of over 100 µM and a TGI [33] of over 100 µM. For the same compound, the TGI [34] was over 100 µM, the TGI [35] was over 100 µM and the TGI [36] was over 100 µM. The TGI [37] was over 100 µM, the TGI [38] was over 100 µM and the TGI [39] was over 100 µM. The TGI [40] was over 100 µM, the TGI [41] was over 100 µM and the TGI [42] was over 100 µM. It also gave a TGI [43] of over 100 µM, a TGI [44] of over 100 µM and a TGI [45] of over 100 µM. The TGI [46] was over 100 µM, the TGI [47] was over 100 µM and the TGI [48] was over 100 µM. The TGI [49] was over 100 µM, the TGI [50] was over 100 µM and the TGI [51] was over 100 µM. For the same compound, the TGI [52] was over 100 µM, the TGI [53] was over 100 µM and the TGI [54] was over 100 µM.

With `c1ccc(-c2sc(-c3cccs3)cc2Cc2cccs2)cc1` the TGI [2] was over 10 µM, the TGI [3] was over 10 µM and the TGI [4] was over 10 µM. For the same compound, the TGI [5] was over 10 µM, the TGI [6] was over 10 µM and the TGI [7] was over 10 µM. For the same compound, the TGI [9] was over 10 µM, the TGI [10] was over 10 µM and the TGI [11] was over 10 µM. It also gave a TGI [12] of over 10 µM, a TGI [55] of over 10 µM and a TGI [13] of over 10 µM. For the same compound, the TGI [14] was over 10 µM, the TGI [56] was over 10 µM and the TGI [15] was over 10 µM. For the same compound, the TGI [17] was over 10 µM, the TGI [18] was over 10 µM and the TGI [19] was over 10 µM. It also gave a TGI [20] of over 10 µM, a TGI [21] of over 10 µM and a TGI [57] of over 10 µM. For the same compound, the TGI [22] was over 10 µM, the TGI [23] was over 10 µM and the TGI [24] was over 10 µM. The TGI [25] was over 10 µM, the TGI [26] was over 10 µM and the TGI [27] was over 10 µM. For the same compound, the TGI [29] was over 10 µM, the TGI [30] was over 10 µM and the TGI [31] was over 10 µM. It also gave a TGI [32] of over 10 µM, a TGI [33] of over 10 µM and a TGI [34] of over 10 µM. For the same compound, the TGI [58] was over 10 µM, the TGI [35] was over 10 µM and the TGI [36] was over 10 µM. The TGI [37] was over 10 µM, the TGI [38] was over 10 µM and the TGI [39] was over 10 µM. The TGI [40] was over 10 µM, the TGI [41] was over 10 µM and the TGI [42] was over 10 µM. It also gave a TGI [43] of over 10 µM, a TGI [44] of over 10 µM and a TGI [59] of over 10 µM. For the same compound, the TGI [45] was over 10 µM, the TGI [47] was over 10 µM and the TGI [48] was over 10 µM. The TGI [49] was over 10 µM, the TGI [50] was over 10 µM and the TGI [51] was over 10 µM. The TGI [52] was over 10 µM, the TGI [53] was over 10 µM and the TGI [54] was over 10 µM.
